Reference: ChEMBL document CHEMBL5550107, “Fluorescent probes and degraders of the sterol transport protein Aster-A” (Bioorg Med Chem, 2024)
The source made the active and inactive calls. No cut-off for these calls is given here.

Columns and labels:
[1] = molecular target: T1, Protein Aster-A (Homo sapiens) (UniProt Q96CP6); assay: Binding affinity to aster A (unknown origin) assessed as change in melting temperature by differential scanning fluorimetry analysis
T1 sequence (whole entry): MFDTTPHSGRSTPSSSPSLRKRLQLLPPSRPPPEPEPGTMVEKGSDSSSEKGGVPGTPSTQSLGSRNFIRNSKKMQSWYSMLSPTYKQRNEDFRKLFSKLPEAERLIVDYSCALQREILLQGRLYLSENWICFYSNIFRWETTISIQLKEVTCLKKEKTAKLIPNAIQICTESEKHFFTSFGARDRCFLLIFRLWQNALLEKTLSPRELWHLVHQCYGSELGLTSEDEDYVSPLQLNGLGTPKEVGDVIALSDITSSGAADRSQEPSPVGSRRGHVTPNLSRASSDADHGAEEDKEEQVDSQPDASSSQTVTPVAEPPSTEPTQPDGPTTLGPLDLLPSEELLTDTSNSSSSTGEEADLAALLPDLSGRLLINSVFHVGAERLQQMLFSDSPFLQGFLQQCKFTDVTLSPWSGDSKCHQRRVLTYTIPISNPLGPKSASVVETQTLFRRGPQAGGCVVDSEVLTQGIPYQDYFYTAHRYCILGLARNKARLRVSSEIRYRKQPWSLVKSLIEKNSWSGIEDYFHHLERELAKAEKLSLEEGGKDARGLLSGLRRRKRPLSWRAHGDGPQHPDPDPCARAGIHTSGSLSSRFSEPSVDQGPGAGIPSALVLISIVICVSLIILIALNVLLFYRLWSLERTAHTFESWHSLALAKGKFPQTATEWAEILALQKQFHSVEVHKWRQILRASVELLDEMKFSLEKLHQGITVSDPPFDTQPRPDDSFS

Protein Aster-A [2] = molecular target: T2, Protein Aster-A (Homo sapiens, UniProt Q96CP6); assay: Displacement of tert-butyl 2-(4-((3-(4-(3-((2-(2,6-dioxopiperidin-3-yl)-1,3-dioxoisoindolin-4-yl)amino)propoxy)butoxy)propyl)carbamoyl)benzamido)-3a,6,7,7a-tetrahydrothiazolo[5,4-c]pyridine-5(4H)-carboxylate from aster A (unknown origin) assessed as change in fluorescence intensity
T2 sequence (Q96CP6 whole entry): T1 sequence (whole entry)

Protein Aster-A [3] = molecular target: T2, Protein Aster-A; assay: Displacement of 22-NBD-Chol from aster A (unknown origin) by fluorescence polarization method
[4] = molecular target: Oxysterol-binding protein-related protein 1 (OSBPL1A) (Homo sapiens) (UniProt Q9BXW6); assay: Binding affinity to ORP1 (unknown origin)
Chain of Oxysterol-binding protein-related protein 1 (OSBPL1A) (Homo sapiens) (Q9BXW6 whole entry, looked up): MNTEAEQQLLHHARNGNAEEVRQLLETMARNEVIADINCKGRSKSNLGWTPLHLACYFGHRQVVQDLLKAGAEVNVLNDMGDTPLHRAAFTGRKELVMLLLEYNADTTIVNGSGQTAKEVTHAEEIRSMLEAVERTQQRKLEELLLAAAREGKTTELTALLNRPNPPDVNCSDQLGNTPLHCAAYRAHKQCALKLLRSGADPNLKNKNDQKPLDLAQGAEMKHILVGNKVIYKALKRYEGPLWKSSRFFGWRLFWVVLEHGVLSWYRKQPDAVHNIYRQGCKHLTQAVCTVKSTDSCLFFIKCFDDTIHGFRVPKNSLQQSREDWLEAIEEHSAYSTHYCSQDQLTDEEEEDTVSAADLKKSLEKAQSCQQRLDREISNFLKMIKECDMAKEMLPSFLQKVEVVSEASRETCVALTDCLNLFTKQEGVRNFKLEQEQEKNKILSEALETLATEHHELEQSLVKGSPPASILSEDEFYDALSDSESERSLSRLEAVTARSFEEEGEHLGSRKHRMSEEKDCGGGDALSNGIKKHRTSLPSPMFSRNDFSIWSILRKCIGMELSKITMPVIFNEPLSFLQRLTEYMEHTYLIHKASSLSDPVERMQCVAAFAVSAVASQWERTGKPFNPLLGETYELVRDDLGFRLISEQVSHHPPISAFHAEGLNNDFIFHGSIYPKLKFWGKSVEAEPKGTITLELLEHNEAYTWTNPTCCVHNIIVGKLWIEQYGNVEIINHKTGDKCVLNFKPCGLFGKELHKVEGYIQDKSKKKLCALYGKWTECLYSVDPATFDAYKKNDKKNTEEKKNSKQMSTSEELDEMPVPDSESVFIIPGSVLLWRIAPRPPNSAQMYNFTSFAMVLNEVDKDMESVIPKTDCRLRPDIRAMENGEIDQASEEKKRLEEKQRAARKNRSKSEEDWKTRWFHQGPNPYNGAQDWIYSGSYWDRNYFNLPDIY

Protein Aster-A [5] = molecular target: T2, Protein Aster-A; assay: Binding affinity to aster A (unknown origin) assessed as change in fluorescence intensity
Protein Aster-A [6] = molecular target: T2, Protein Aster-A; assay: Binding affinity to aster A (unknown origin) by fluorescence polarization method
MCF7 = assay: Inhibition of autophagy in human MCF7 cells expressing eGFP-LC3; format: functional, cell-based
[7] = molecular target: T1, Protein Aster-A (Homo sapiens); assay: Induction of aster A degradation in human MCF7 cells; format: cell-based
[8] = molecular target: Protein Aster-C (Homo sapiens) (UniProt Q8IYS0); assay: Binding affinity to aster C (unknown origin)
Chain of Protein Aster-C (Homo sapiens) (Q8IYS0 whole entry): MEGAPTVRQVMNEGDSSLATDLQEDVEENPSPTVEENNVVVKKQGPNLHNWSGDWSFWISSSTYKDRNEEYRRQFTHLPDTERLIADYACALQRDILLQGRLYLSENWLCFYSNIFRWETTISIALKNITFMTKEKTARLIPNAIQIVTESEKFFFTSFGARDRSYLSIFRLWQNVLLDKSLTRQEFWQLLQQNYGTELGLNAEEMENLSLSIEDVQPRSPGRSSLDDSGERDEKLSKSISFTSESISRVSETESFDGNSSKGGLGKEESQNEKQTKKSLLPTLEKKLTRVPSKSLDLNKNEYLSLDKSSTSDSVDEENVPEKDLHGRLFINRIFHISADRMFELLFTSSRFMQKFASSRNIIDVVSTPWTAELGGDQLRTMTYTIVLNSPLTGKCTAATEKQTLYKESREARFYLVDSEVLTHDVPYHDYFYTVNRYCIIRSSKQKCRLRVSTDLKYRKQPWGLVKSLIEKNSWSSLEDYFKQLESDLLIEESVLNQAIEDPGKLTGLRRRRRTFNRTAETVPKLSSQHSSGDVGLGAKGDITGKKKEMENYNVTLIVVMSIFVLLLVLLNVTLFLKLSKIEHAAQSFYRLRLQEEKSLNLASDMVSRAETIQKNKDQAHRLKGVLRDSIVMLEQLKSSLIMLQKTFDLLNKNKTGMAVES

[9] = molecular target: T3, Protein cereblon/Protein Aster-A (Homo sapiens, UniProt Q96SW2+Q96CP6); assay: PROTAC activity at CRBN/aster A in human HeLa cells assessed as aster A degradation at 10 uM incubated for 18 hrs in presence of MG132 by Western blotting analysis; format: cell-based
Target sequence in this assay (Q96SW2 whole entry, looked up, one chain of several): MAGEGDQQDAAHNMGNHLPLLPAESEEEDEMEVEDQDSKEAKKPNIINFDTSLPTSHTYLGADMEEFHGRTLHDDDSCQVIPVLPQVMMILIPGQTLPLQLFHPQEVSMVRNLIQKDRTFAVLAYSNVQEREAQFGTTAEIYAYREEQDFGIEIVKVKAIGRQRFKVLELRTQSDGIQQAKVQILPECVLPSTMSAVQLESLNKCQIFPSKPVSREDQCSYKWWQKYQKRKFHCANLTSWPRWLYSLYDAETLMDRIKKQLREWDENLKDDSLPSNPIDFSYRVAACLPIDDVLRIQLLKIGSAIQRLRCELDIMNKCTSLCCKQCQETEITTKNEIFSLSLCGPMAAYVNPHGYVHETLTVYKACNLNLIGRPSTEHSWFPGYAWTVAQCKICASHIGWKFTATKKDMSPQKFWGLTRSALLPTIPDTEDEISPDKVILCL

[10] = molecular target: T3, Protein cereblon/Protein Aster-A; assay: PROTAC activity at CRBN/aster A in human HeLa cells at 10 uM incubated for 18 hrs by Western blotting analysis; format: cell-based
Target sequence in this assay (Q96SW2 whole entry, looked up, one chain of several): as above

[11] = molecular target: T3, Protein cereblon/Protein Aster-A; assay: PROTAC activity at CRBN/aster A in human HeLa cells assessed as aster A degradation incubated for 18 hrs by Western blotting analysis; format: cell-based
Homo sapiens = species: Homo sapiens; assay: Binding affinity to aster B (unknown origin)
[12] = molecular target: T4, Steroidogenic acute regulatory protein, mitochondrial (Homo sapiens) (UniProt P49675); assay: Binding affinity to STARD1 (unknown origin)
T4 sequence (whole entry): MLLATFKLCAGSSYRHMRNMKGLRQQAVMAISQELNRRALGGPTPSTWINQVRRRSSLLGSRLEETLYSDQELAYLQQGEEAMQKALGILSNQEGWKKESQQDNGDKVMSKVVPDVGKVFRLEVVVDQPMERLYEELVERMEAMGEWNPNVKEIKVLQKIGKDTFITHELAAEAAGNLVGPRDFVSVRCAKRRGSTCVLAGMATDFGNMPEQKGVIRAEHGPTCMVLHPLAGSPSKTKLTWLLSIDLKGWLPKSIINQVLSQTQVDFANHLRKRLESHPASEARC

[13] = molecular target: T1, Protein Aster-A (Homo sapiens); assay: Induction of aster A degradation in human A549 cells; format: cell-based
[14] = molecular target: T3, Protein cereblon/Protein Aster-A; assay: PROTAC activity at CRBN/aster A in human HeLa cells assessed as aster A degradation at 10 uM incubated for 18 hrs in presence of MLN4924 by Western blotting analysis; format: cell-based
Target sequence in this assay (Q96SW2 whole entry, looked up, one chain of several): as the sequence (Q96SW2 whole entry, looked up, one chain of several) above

[15] = molecular target: T3, Protein cereblon/Protein Aster-A; assay: PROTAC activity at CRBN/aster A in human HeLa cells assessed as maximum degradation incubated for 18 hrs by Western blotting analysis; format: cell-based
Target sequence in this assay (Q96SW2 whole entry, looked up, one chain of several): as the sequence (Q96SW2 whole entry, looked up, one chain of several) above

[16] = Drug uptake in human HeLa cells assessed as increase in intracellular fluorescence at 10 uM incubated for 1 hr by […] microscopic analysis; format: ADME, cell-based

| ΔTm [1] | IC50 (Protein Aster-A [3]) | Activity [4] | Kd (Protein Aster-A [5]) | Kd (Protein Aster-A [6]) | Compound | IC50 (Protein Aster-A [2]) | Autophagy inhibition (active/not active) (MCF7) | further results |
| --- | --- | --- | --- | --- | --- | --- | --- | --- |
| 6.8 °C | 1.93 µM |  |  |  | CC(C)Oc1ccc(C(=O)Nc2nc3c(s2)CN(C(=O)OC(C)(C)C)CC3)cc1 | 1.18 µM |  |  |
| 3.6 °C | 4.68 µM |  |  |  | Cc1ncsc1-c1ccc(CNC(=O)[C@H]2C[C@H](O)CN2C(=O)[C@@H](NC(=O)CCCCCCNC(=O)c2ccc(C(=O)Nc3nc4c(s3)CN(C(=O)OC(C)(C)C)CC4)cc2)C(C)(C)C)cc1 | 2.75 µM |  |  |
| 4.9 °C |  | Active | 0.088 µM | 0.049 µM | CC(C)(C)OC(=O)N1CCC2N=C(NC(=O)c3ccc(C(=O)NCCOCCOCCOCCNc4cccc5c4C(=O)N(C4CCC(=O)NC4=O)C5=O)cc3)SC2C1 (configuration not stated) |  |  |  |
| 5 °C |  | Active | 0.11 µM | 0.037 µM | CC(C)(C)OC(=O)N1CCC2N=C(NC(=O)c3ccc(C(=O)NCCCOCCOCCCNc4cccc5c4C(=O)N(C4CCC(=O)NC4=O)C5=O)cc3)SC2C1 (configuration not stated) |  |  |  |
| 5.7 °C |  | Active | 0.083 µM | 0.09 µM | CC(C)(C)OC(=O)N1CCC2N=C(NC(=O)c3ccc(C(=O)NCCCOCCCCOCCCNc4cccc5c4C(=O)N(C4CCC(=O)NC4=O)C5=O)cc3)SC2C1 (configuration not stated) |  | Active | Activity [7]: inactive; Activity [8]: inactive; Activity [9]: inactive; Activity [10]: 50%; Activity [11]: Dose-Dependent Effect; DC50 [11]: 4.8 µM; Activity (Homo sapiens): inactive; Activity [12]: inactive; Activity [13]: inactive; Activity [14]: inactive; Emax [15]: 60% |
| 5.8 °C |  | Active | 0.086 µM | 0.068 µM | CC(C)(C)OC(=O)N1CCC2N=C(NC(=O)c3ccc(C(=O)NCCCOCCOCCOCCCNc4cccc5c4C(=O)N(C4CCC(=O)NC4=O)C5=O)cc3)SC2C1 (configuration not stated) |  | Active |  |
| 0.2 °C | > 10 µM |  |  |  | CC12CCC(O)CC1CCc1cnn(-c3ccccc3F)c12 (configuration not stated) | > 10 µM |  |  |
| 4.4 °C | 3.7 µM |  |  |  | Cc1ncsc1-c1ccc(CNC(=O)[C@H]2C[C@H](O)CN2C(=O)[C@@H](NC(=O)COCCOCCNC(=O)c2ccc(C(=O)Nc3nc4c(s3)CN(C(=O)OC(C)(C)C)CC4)cc2)C(C)(C)C)cc1 | 1.47 µM |  |  |
| 3.2 °C |  | Active | 0.765 µM | 0.745 µM | CC(C)(C)OC(=O)N1CCC2N=C(NC(=O)c3ccc(C(=O)NCCCCCCNc4cccc5c4C(=O)N(C4CCC(=O)NC4=O)C5=O)cc3)SC2C1 (configuration not stated) |  | inactive | Drug uptake [16]: Active |
| 0.1 °C |  |  | > 5 µM | > 5 µM | Nc1cccc2c1C(=O)N(C1CCC(=O)NC1=O)C2=O (configuration not stated) [POMALIDOMIDE] |  |  |  |
| 1.2 °C |  | Active | > 5 µM | > 5 µM | CC(C)(C)OC(=O)N1CCC2N=C(NC(=O)c3ccc(C(=O)NCCCCCCCCCCNc4cccc5c4C(=O)N(C4CCC(=O)NC4=O)C5=O)cc3)SC2C1 (configuration not stated) |  | inactive |  |
| 0.3 °C |  |  | > 5 µM | > 5 µM | CC(C)(C)OC(=O)NCCOCCOCCNc1cccc2c1C(=O)N(C1CCC(=O)NC1=O)C2=O (configuration not stated) |  |  |  |
| 4 °C |  | Active | > 5 µM | 0.149 µM | CC(C)(C)OC(=O)N1CCC2N=C(NC(=O)c3ccc(C(=O)NCCOCCOCCNc4cccc5c4C(=O)N(C4CCC(=O)NC4=O)C5=O)cc3)SC2C1 (configuration not stated) |  | Active |  |
| 1.6 °C | > 10 µM |  |  |  | Cc1ncsc1-c1ccc(CNC(=O)[C@H]2C[C@H](O)CN2C(=O)[C@@H](NC(=O)CCCCCCCCCNC(=O)c2ccc(C(=O)Nc3nc4c(s3)CN(C(=O)OC(C)(C)C)CC4)cc2)C(C)(C)C)cc1 | > 10 µM |  |  |

| Compound | ΔTm [1] | IC50 (Protein Aster-A [3]) | Activity [4] | Kd (Protein Aster-A [5]) | Kd (Protein Aster-A [6]) | IC50 (Protein Aster-A [2]) | Autophagy inhibition (active/not active) (MCF7) | further results |
| --- | --- | --- | --- | --- | --- | --- | --- | --- |
| CCN(CC)CCO[C@H]1CC[C@@]2(C)C(=CC[C@@H]3[C@@H]2CC[C@]2(C)C(=O)CC[C@@H]32)C1 | 5.6 °C |  |  |  |  |  |  |  |
